Assay [1] concerns the target immunoproteasome LMP7/B5i subunit (Homo sapiens, UniProt P28062). The assay can be described thus: Caliper-based proteasome enzymatic activity assay, LMP7. The assay is classed as biochemical. To be noted: human recombinant immunoproteasome 0.3 nM, FAM peptide substrate 1 μM, rt 3 h.
The target in assay [2] is T1, PBMC LMP7 (Homo sapiens, UniProt P28062). The assay can be described thus: Durability of binding in cells (wash-out, Proteasome-Glo), PBMC LMP7. The assay is classed as cell-based. As to the method: (§1) The durability of binding of proteasome inhibitors was assessed in cells using wash-out assays and the Proteasome-Glo™ Reagent kit. THP-1 cells, HT-29 cells, or PBMC were incubated with an 8-fold dilution series of inhibitor for 2 h. Following 2 h of incubation, cells were washed using 3 occasions of centrifugation followed by resuspension in culture medium. Following inhibitor washout, cells were returned to culture for either 30 minutes, 4 h, or 18 h. Cells were then transferred to white 384 plates, and 20 uL of Proteasome-Glo™ Reagent was added to each well for 10 minutes. Plates were then read on an Analyst HT plate reader using luminescence mode. The percent inhibition of activity was plotted as a function of log compound concentration. The IC50 was then calculated for each compound using Prism software from GraphPad.

The target in assay [3] is T2, PBMC LMP2 (Homo sapiens, UniProt P28065). Kind of assay: Inhibition of proteasome activity in cells (Proteasome-Glo), PBMC/LMP2. The assay is classed as cell-based. To be noted: 2 h incubation at 37° C. As to the method: (§2) The cell-based effects of a compound described herein on the immunoproteasome were determined by measuring inhibition of proteasome activity in cells using the Proteasome-Glo™ Cell-Based Reagent (Promega, Madison WI). The Proteasome-Glo™ assay contains a specific luminogenic proteasome substrate in a buffer optimized for cell permeabilization, proteasome activity, and luciferase activity. For the chymotrypsin-like activity (LMP7 and 05c), the peptide substrate is Suc-LLVY-aminoluciferin (Succinyl-leucine-leucine-valine-tyrosine-aminoluciferin). Cleavage of the substrate by proteasome results in luminescent signal which is proportional to the proteasome activity. The cell line THP-1 (a monocytic leukemia cell line enriched in immunoproteasome), the cell line HT-29 (a colorectal adenocarcinoma cell line enriched in constitutive proteasome), and primary human peripheral blood mononuclear cells (PBMC) were used to assess proteasome activity. Cells were seeded in a 96-well plate at 10,000 cells per well in RPMI 1640 high glucose medium with 10% fetal bovine serum (FBS). Compound dilutions were added to cells starting at a concentration of 5 uM and decreasing in tripling dilutions. The final DMSO concentration was 1%. The concentration range was adjusted as needed for compounds of different potencies. The cells treated with compounds were incubated for 2 h at 37° C. in 5% CO2. At the end of the 2 hour incubation period, cells were transferred to white 384 well assay plates. 20 uL of Proteasome-Glo™ Reagent was added to each well and incubated for 10 minutes at rt. The plate was read in the Analyst HT instrument (Molecular Devices, Sunnyvale, CA) using luminescence mode. The percent inhibition of activity was plotted as a function of log compound concentration. The IC50 was then calculated for each compound using Prism software from GraphPad Software Inc. (San Diego, CA).

The target of assay [4] is T3, HT29 β5c (Homo sapiens, UniProt P28074). Kind of assay: Durability of binding in cells (wash-out, Proteasome-Glo), HT29 β5c. The assay is classed as cell-based. As to the method:
as §1

Assay [5] addresses immunoproteasome LMP2 subunit (Homo sapiens, UniProt P28065). The assay can be described thus: Caliper-based proteasome enzymatic activity assay, LMP2. The assay is classed as biochemical. As to conditions: human recombinant immunoproteasome 0.3 nM, FAM peptide substrate 1 μM, rt 2 h.
In assay [6] the target is T3, HT29 β5c. Kind of assay: Inhibition of proteasome activity in cells (Proteasome-Glo), HT29/β5c. The assay is classed as cell-based. To be noted: HT-29 cells, 2 h incubation at 37° C. As to the method: as §2, with “Compound dilutions were added to cells starting at a concentration of 5 uM and decreasing in tripling dilutions. The final DMSO concentration was 1%. The concentration range was adjusted as needed for compounds of different potencies. The cells treated with compounds were incubated for 2 h at 37° C. in 5% CO2. At the end of the 2 hour incubation period, cells were transferred to white 384 well assay plates. 20 uL of Proteasome-Glo™ Reagent was added to each well and incubated for 10 minutes at rt.” left out, “The percent inhibition of activity was plotted as a function of log compound concentration.” left out

Assay [7] deals with T2, PBMC LMP2. Kind of assay: Durability of binding in cells (wash-out, Proteasome-Glo), PBMC LMP2. The assay is classed as cell-based. As to the method: as §1
The target of assay [8] is constitutive proteasome β5c subunit (Homo sapiens, UniProt P28074). Kind of assay: Caliper-based proteasome enzymatic activity assay, β5c. The assay is classed as biochemical. To be noted: human recombinant constitutive proteasome 0.3 nM, FAM peptide substrate 1 μM, rt 3 h.
Assay [9] deals with T1, PBMC LMP7. The assay can be described thus: Inhibition of proteasome activity in cells (Proteasome-Glo), PBMC/LMP7. The assay is classed as cell-based. To be noted: 2 h incubation at 37° C. As to the method:
as §2

In another assay the test system is Th1/17 differentiation. To be noted: cited from earlier work.
The test system of assay [10] is production of proinflammatory cytokines (IL-6, TNF-α, IL-23). To be noted: cited from earlier work.
In assay [11] the test system is murine DSS-induced colitis model. As to conditions: cited from earlier work.
A further assay relates to MRL/lpr lupus model. To be noted: cited from earlier work.
For assay [12], the system named is Hashimoto's thyroiditis model. To be noted: mouse, in vivo; cited from earlier work.
The test system of assay [13] is murine collagen-induced arthritis. As to conditions: mouse, in vivo; cited from earlier work.
The subject of assay [14] is multiple myeloma cell lines and primary patient tumor cells. As to conditions: cited from earlier work.
The test system of the next assay is prostate PC-3 cell line. As to conditions: cited from earlier work.
Another assay concerns tumor growth. To be noted: mouse; cited from earlier work.

Bounds are passed on as bounds.

In general, IC50 refers to the concentration at which inhibition is half-maximal. Consider `CC(C)(C)NC(=O)C(C#N)=Cc1cccc(OCCC(=O)N[C@@H](Cc2ccccc2)B(O)O)c1` [Example 2, (R)-(1-(3-(3-(3-(tert-butylamino)-2-cyano-3-oxoprop-1-en-1-yl)phenoxy)propanamido)-2-phenylethyl)boronic Acid], for which the IC50 amounted to 3 nM in assay [1]; 5 nM at PBMC LMP7 [2] (30 min after inhibitor washout); 10 nM on PBMC LMP7 [2] (4 hr after inhibitor washout); 126 nM on PBMC LMP7 [2] (18 hr after inhibitor washout); 3820 nM against PBMC LMP2 [3]; 109 nM on HT29 β5c [4] (30 min after inhibitor washout). For the same molecule, the IC50 at HT29 β5c [4] (4 hr after inhibitor washout) is greater than 5000 nM; at HT29 β5c [4] (18 hr after inhibitor washout), greater than 5000 nM; in [5], 160 nM; against HT29 β5c [6] it was 73 nM; at PBMC LMP2 [7] (4 hr after inhibitor washout), greater than 5000 nM; on PBMC LMP2 [7] (18 hr after inhibitor washout) it was greater than 5000 nM. In addition, the half-maximal inhibitory concentration (IC50) in assay [8] worked out at 66 nM; against PBMC LMP7 [9], 5 nM.

In the case of `COc1ccc(C[C@H](NC(=O)[C@H](C)NC(=O)CN2CCOCC2)C(=O)N[C@@H](Cc2ccccc2)C(=O)[C@@]2(C)CO2)cc1` [PR-957], the “human and mouse Th1/17 differentiation” value with Th1/17 differentiation is listed as “potently block”. In addition, in [10], the “B cell effector functions and production of proinflammatory cytokines (IL-6, TNF-α, IL-23)” value is given as “potently block”. The “inflammation and tissue destruction” value in assay [11] was “reduced inflammation and tissue destruction”. Moreover, the “plasma cell numbers and anti-dsDNA IgG levels” value with MRL/lpr lupus model is “reduced plasma cell numbers and anti-dsDNA IgG levels”. In addition, the “efficacy in autoantibody-driven Hashimoto's thyroiditis model” value in assay [12] is “efficacious”. Besides, the “disease activity in murine collagen-induced arthritis” value in assay [13] is “significantly inhibit disease activity”.

`CN(C)C(=O)C(C#N)=Cc1cccc(CCOC(=O)N[C@@H](Cc2ccccc2)B(O)O)c1` [Example 17, (R)-(1-(((3-(2-cyano-3-(dimethylamino)-3-oxoprop-1-en-1-yl)phenethoxy)carbonyl)amino)-2-phenylethyl)boronic Acid]: the IC50 was 8 nM in assay [1]; greater than 5000 nM against PBMC LMP2 [3]; greater than 5000 nM in [5]; 1310 nM in assay [8]; 9 nM on PBMC LMP7 [9].

As to `CN1CCN(C(=O)C(C#N)=Cc2cccc(OCCC(=O)N[C@@H](Cc3ccccc3)B(O)O)c2)CC1` [Example 19, (R)-(1-(3-(3-(2-cyano-3-(4-methylpiperazin-1-yl)-3-oxoprop-1-en-1-yl)phenoxy)propanamido)-2-phenylethyl)boronic Acid], the IC50 was 11 nM in [1]; greater than 5000 nM at PBMC LMP2 [3]; 170 nM in assay [5]; 43 nM in [8]; 67 nM against PBMC LMP7 [9].

Regarding `N#CC(=Cc1cccc(OCCC(=O)N[C@@H](Cc2ccccc2)B(O)O)c1)c1ccccn1` [Example 6, (R)-(1-(3-(3-(2-cyano-2-(pyridin-2-yl)vinyl)phenoxy)propanamido)-2-phenylethyl)boronic Acid], the IC50 in assay [1] is 8 nM; at PBMC LMP2 [3], greater than 5000 nM; in [5], 84 nM; in assay [8], 89 nM; against PBMC LMP7 [9], 7 nM.

For the molecule `CC1=C(C(=O)N[C@H](C)C(=O)N[C@@H](Cc2c[nH]c3ccccc23)C(=O)N[C@@H](Cc2ccccc2)C(=O)[C@@]2(C)CO2)Cc2ccccc21` [PR-924], in assay [14], the “growth of multiple myeloma cell lines and primary patient tumor cells” value is “inhibit growth”.

Turning to `CC(C)(C)NC(=O)C(C#N)=Cc1cccc(OCCC(=O)N[C@@H](Cc2coc3ccccc23)B(O)O)c1` [Example 14, (R)-(2-(benzofuran-3-yl)-1-(3-(3-(3-(tert-butylamino)-2-cyano-3-oxoprop-1-en-1-yl)phenoxy)propanamido)ethyl)boronic Acid], the IC50 was found to be 0.2 nM in [1]; 510 nM on PBMC LMP2 [3]; 3240 nM in [5]; 4 nM in assay [8]; 2 nM against PBMC LMP7 [9].

As for `CC(C)(C)NC(=O)C(C#N)=Cc1cccc(OCCC(=O)N[C@@H](CCc2ccccc2)B(O)O)c1` [Example 11, (R)-1-(3-(3-(3-(tert-butylamino)-2-cyano-3-oxoprop-1-enyl)phenoxy)propanamido)-3-phenylpropylboronic Acid], the IC50 was 2 nM in [1]; greater than 5000 nM against PBMC LMP2 [3]; greater than 5000 nM in [5]; 310 nM in assay [8]; 3 nM at PBMC LMP7 [9].

For `CCCCCCC(=O)N[C@@H](C)C(=O)N[C@@H](CC(C)C)C(=O)[C@@]1(CO[Si](C)(C)C(C)(C)C)CO1` [UK-101], the “apoptosis of prostate PC-3 cell line in vitro” value in the assay with prostate PC-3 cell line was “induced apoptosis”. Besides, in the assay on tumor growth, the “tumor growth in vivo” value is “significantly suppressed tumor growth”.

Turning to `N#CC(=Cc1cccc(CCOC(=O)N[C@@H](Cc2coc3ccccc23)B(O)O)c1)c1ccccn1` [Example 35, (R)-(2-(benzofuran-3-yl)-1-(((3-(2-cyano-2-(pyridin-2-yl)vinyl)phenethoxy)carbonyl)amino)ethyl)boronic Acid], the IC50 was 2 nM in [1], greater than 5000 nM in [5], 66 nM in assay [8] and 3 nM against PBMC LMP7 [9].

With `N#CC(=Cc1cccc(CCOC(=O)N[C@@H](Cc2ccccc2)B(O)O)c1)c1ncccc1F` [Example 54, (R)-(1-(((3-(2-cyano-2-(3-fluoropyridin-2-yl)vinyl)phenethoxy)carbonyl)amino)-2-phenylethyl)boronic Acid], the IC50 in [1] is 3.3 nM; in [5], greater than 5000 nM; in assay [8], 610 nM; against PBMC LMP7 [9], 4 nM.

`CN(C)C(=O)C(C#N)=Cc1cccc(COC(=O)N[C@@H](Cc2ccccc2)B(O)O)c1` [Example 15, (R)-(1-((((3-(2-cyano-3-(dimethylamino)-3-oxoprop-1-en-1-yl)benzyl)oxy)carbonyl)amino)-2-phenylethyl)boronic Acid]: the IC50 is 8 nM in assay [1]; greater than 5000 nM on PBMC LMP2 [3]; 2920 nM in assay [5]; 3240 nM in assay [8]; 18 nM against PBMC LMP7 [9].

Take `CNC(=O)C(C#N)=Cc1cccc(OCCC(=O)N[C@@H](Cc2ccccc2)B(O)O)c1` [Example 20, (R)-(1-(3-(3-(2-cyano-3-(methylamino)-3-oxoprop-1-en-1-yl)phenoxy)propanamido)-2-phenylethyl)boronic Acid]: the IC50 in assay [1] is 3 nM; against PBMC LMP2 [3] it was greater than 5000 nM; in assay [5], 120 nM; in assay [8], 32 nM; at PBMC LMP7 [9] it was 34 nM.

In the case of `N#CC(=Cc1cccc(CCOC(=O)N[C@@H](Cc2ccccc2)B(O)O)c1)C(=O)N1C2CCC1COC2` [Example 67, ((1R)-1-(((3-(3-(3-oxa-8-azabicyclo[3.2.1]octan-8-yl)-2-cyano-3-oxoprop-1-en-1-yl)phenethoxy)carbonyl)amino)-2-phenylethyl)boronic Acid], the IC50 was 0.4 nM in assay [1], 2320 nM in assay [5], greater than 5000 nM in assay [8] and 2 nM against PBMC LMP7 [9].

These data come from patent US12024531B2, “Immunoproteasome inhibitors” (Principia Biopharma Inc., priority 2017, dated 2024).
